Experimental data from US20170166558A1, “O-GLCNAC TRANSFERASE (OGT) INHIBITORS AND USES THEREOF” (President and Fellows of Harvard College, priority 2014, published 2017).

Columns and labels:
[1] = system: OGT in CHO cells; experiment: Markers of OGT inhibition in CHO cells (Nup62 mass shift, OGA levels, H2B-S112 O-GlcNAc); format: cell-based, Chinese hamster
Description: (§1) In vivo inhibition of glycosylation: For all immunoblotting experiments, CHO-K1 (CHO) cells were grown in F12-K media supplemented with 10% FBS and antibiotics at 37° C. in a 5% CO2 incubator. Cells were treated by adding indicated inhibitor in DMSO vehicle (0.5% final vehicle concentration) upon reaching 70% confluence. After indicated treatment length, cells were harvested by aspirating growth media and washing with ice cold 1× PBS. Cells were subsequently lysed in boiling 1% SDS/20 mM HEPES 7.9. After cooling to room temperature, 1 mM PMSF, 10 μM PUGNAC, 10 μM TMG and 1× Complete protease inhibitor cocktail were added to the solution. The mixture was sonicated and then subjected to a 5 minute incubation at 95° C. The samples were centrifuged for 15 minutes at 20,000×g and the supernatant was collected and the total protein was measured by BCA assay (BIO-RAD).
(§2) The sample was separated by SDS-PAGE (Bio-Rad 4-15%, Cat: 345-0028), transferred to a nitrocellulose membrane (iBlot, Invitrogen) and probed with the indicated antibody. Tyipcally, membranes were blocked with 4% BSA in 1× TBS+0.04% tween-20 for 1 hour before incubating with antibody (typically diluted 1:1000 in 4% BSA inlx TBS+0.04% tween-20) overnight at 4° C. Membranes were then washed three times with 1× TBS+0.04% tween-20 and incubated with secondary antibody (typically diluted 1:5000 in 4% BSA in 1× TBS+0.04% tween-20) for 1 hour at room temperature. Lastly, membranes were washed 3× with 1× TBS+0.04% tween-20 and imaged with ECL. D283-Med cells were treated as above but grown in F12-K media supplemented with 10% FBS and antibiotics. HEK, HeLa and LNCaP cells were treated as above but grown in RPMI media supplemented with 10% FBS and antibiotics.

[2] = system: CHO, HEK-293, HeLa and D283-Med cells; experiment: Immunoblotting of global O-GlcNAcylation in various mammalian cell types; format: cell-based; details: 50 μM, 24 hours
Description: as §1
The sample was separated by SDS-PAGE (Bio-Rad 4-15%, Cat: 345-0028), transferred to a nitrocellulose membrane (iBlot, Invitrogen) and probed with the indicated antibody. Tyipcally, membranes were blocked with 4% BSA in 1× TBS+0.04% tween-20 for 1 hour before incubating with antibody (typically diluted 1:1000 in 4% BSA inlx TBS+0.04% tween-20) overnight at 4° C. […]

[3] = system: cell surface glycans of CHO cells; experiment: Lectin blots of cell surface glycans of CHO cells; format: cell-based, Chinese hamster; details: 50 μM, 24 hours
Description: Lectin blots were performed with the CHO-K1 cell lysate as prepared above. […] The biotin label on the lectins was visualized with incubation with Streptavidin-HRP (Pierce) followed by ECL detection and imaging.

[4] = system: OGT in CHO cells; experiment: Immunoblotting of global O-GlcNAcylation (RL2) in CHO cells; format: cell-based, Chinese hamster
Description: as §1, §2

CC(=O)N[C@@H]1[C@@H](OC(C)=O)[C@H](OC(C)=O)[C@@H](COC(C)=O)S[C@@H]1OC(C)=O [Ac4-5SGlcNAc, reference compound]
Cellular OGA levels [1]: reduced cellular OGA
Global O-GlcNAc levels in four cell lines [2]: reduce global O-GlcNAc levels in all four lines examined
Changes in bands detected by ConA, PHA-L, ECL, GSL-I, PNA or DBA [3]: minimal changes
Changes in glycans detected by Jacalin, PHA-E and LCA [3]: dramatic changes
Onset of reduction of global O-GlcNAcylation ([4]; 50 μM, 8-hour time course): only at four hours
Effect on global O-GlcNAcylation ([4]; 24 hours, up to 50 μM): reduced global O-GlcNAcylation to a greater extent than OSMI-1
